Assays:
[1] = molecular target: T1, betaine-homocysteine methyltransferase (Mus musculus, UniProt O35490); test: LC/MS/MS identification of proteins from mouse liver extracts labeled with MTS-I-49; type: biochemical
T1 construct: from tissue; host or cells: mouse liver extract
T1 sequence (O35490 1-407): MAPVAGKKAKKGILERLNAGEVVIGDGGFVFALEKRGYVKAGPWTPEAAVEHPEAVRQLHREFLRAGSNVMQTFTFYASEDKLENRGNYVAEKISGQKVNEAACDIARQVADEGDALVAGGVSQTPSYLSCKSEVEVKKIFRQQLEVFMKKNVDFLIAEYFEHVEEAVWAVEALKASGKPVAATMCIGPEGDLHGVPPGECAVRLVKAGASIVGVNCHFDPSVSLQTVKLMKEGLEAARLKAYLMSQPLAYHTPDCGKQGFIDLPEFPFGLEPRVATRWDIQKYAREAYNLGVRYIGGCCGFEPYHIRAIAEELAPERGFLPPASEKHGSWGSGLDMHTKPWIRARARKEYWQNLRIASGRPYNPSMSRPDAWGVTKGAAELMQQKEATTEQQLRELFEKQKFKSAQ
Description: (§1) (1991) Irreversible inhibition of serine proteases by peptide derivatives of (alpha-aminoalkyl)phosphonate diphenyl esters. Biochemistry 30, 485-493). However, it has not been used for any proteomic applications. We used MTS-I-49 to label mouse liver extracts and analyze the labeled sample by both SDS-PAGE (FIG. 5B) and by direct chemical cleavage or on bead digestion.
(§2) After enrichment on immobilized avidin, each of the three labeled proteomes (FIG. 5b) was divided into two aliquots. One was prepared for LC-MS/MS analysis by “on bead” digestion, while the other was chemically eluted and digested “in solution.” Proteins identified in each tissue lysate are listed with their accession number and theoretical molecular weight (MW). To compare both approaches, the number of identified peptides and percentage of amino acid sequence coverage is listed for each protein.
(§3) Proteins in the above Table were identified by LC/MS/MS analysis of on bead digested or chemically eluted proteins from mouse liver extracts labeled with MTS-I-49. […] BLAST database searching identified it as liver carboxylesterase 4. A number of additional endogenously biotinylated proteins were identified in the on-bead digested sample.

[2] = molecular target: T2, glyceraldehyde-3-phosphate dehydrogenase (Mus musculus, UniProt P16858); test: as above; type: biochemical
T2 construct: from tissue; host or cells: mouse liver extract
T2 sequence (P16858 whole entry): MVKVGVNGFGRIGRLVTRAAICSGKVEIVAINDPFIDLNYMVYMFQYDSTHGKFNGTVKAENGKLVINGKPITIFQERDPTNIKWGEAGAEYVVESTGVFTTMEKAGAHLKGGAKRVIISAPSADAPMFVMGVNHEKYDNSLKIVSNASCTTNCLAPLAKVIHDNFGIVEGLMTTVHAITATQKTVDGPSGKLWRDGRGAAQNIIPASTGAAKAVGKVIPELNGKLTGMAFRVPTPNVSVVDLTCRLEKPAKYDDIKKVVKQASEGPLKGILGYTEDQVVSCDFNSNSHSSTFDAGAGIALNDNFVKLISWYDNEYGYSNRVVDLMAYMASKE
Description: as §1, §2, §3

albumin 1 = molecular target: T3, albumin 1 (Mus musculus, UniProt P07724); test: as above; type: biochemical
T3 construct: from tissue; host or cells: mouse liver extract
T3 sequence (P07724 25-608): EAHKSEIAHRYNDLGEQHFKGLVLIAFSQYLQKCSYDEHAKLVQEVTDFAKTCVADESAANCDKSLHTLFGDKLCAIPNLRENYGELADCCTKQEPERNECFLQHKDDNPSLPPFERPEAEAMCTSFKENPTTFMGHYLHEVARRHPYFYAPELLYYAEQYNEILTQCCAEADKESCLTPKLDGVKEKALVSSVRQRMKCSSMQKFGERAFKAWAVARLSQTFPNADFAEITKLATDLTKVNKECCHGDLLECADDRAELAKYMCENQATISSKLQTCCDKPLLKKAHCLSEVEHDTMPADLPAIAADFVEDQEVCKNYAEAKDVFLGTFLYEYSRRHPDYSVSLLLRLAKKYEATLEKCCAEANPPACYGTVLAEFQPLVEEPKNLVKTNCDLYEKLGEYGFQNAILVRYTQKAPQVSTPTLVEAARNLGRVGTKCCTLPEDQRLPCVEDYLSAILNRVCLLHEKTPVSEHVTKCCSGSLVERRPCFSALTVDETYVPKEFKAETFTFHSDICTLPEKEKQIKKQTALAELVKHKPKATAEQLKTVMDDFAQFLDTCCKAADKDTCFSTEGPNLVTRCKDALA
Description: as §1, §2, §3

carbonmonoxy hemoglobin = test: as above; type: biochemical
Description: as §1, §2, §3

[3] = molecular target: T4, propionyl-Coenzyme A carboxylase (Mus musculus, UniProt Q91ZA3); test: as above; type: biochemical
T4 construct: from tissue; host or cells: mouse liver extract
T4 sequence (Q91ZA3 49-724): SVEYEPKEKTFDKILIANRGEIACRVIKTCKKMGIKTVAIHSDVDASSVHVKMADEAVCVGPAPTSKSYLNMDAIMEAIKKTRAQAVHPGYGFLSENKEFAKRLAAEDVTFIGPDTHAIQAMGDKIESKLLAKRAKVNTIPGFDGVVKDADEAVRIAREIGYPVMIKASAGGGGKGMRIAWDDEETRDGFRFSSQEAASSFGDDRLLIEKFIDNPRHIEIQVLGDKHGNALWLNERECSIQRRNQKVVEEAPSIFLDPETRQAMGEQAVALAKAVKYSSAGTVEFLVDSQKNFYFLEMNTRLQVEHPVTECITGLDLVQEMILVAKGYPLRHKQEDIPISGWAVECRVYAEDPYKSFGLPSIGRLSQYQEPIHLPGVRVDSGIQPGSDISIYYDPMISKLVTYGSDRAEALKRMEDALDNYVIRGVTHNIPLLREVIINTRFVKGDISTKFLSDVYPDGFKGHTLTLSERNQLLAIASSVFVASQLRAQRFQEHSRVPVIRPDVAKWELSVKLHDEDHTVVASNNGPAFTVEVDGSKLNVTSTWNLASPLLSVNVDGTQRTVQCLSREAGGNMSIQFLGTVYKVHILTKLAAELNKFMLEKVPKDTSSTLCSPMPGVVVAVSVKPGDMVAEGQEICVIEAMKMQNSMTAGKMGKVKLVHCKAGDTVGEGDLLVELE
T4 sequence (Q99MN9 29-541 partner): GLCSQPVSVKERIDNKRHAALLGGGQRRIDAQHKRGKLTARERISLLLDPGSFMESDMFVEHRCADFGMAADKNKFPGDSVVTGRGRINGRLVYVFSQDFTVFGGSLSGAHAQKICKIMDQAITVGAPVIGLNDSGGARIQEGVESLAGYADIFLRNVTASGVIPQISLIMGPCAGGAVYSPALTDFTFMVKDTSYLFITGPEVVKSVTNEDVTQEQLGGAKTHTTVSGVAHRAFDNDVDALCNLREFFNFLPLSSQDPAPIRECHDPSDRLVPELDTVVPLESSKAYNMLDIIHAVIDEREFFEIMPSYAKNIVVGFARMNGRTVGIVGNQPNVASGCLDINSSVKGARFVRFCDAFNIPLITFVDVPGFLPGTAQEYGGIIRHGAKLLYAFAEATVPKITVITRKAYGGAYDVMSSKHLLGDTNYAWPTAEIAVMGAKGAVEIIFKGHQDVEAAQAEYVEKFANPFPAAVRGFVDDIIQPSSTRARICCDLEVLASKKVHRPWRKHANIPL
Description: as §1, §2, §3

[4] = system: 3-hydrozy-3-methylglutaryl-coenzyme A-synthase; test: as above; type: biochemical
Description: as §1, §2, §3

[5] = system: acetyl-Coenzyme A dehydrogenase; test: as above; type: biochemical
Description: as §1, §2, §3

[6] = Background peptides, chemical elution versus on-bead digestion; design: species or system mouse; settings: chemical elution compared with on-bead digestion
Experimental: as §2
Carboxylesterase 4 has not been characterized on a functional level and has never been confirmed to be catalytically active (Rawlings, N. D., Morton, F. R., and Barrett, A. J. (2006) MEROPS: the peptidase database. Nucleic Acids Res 34, D270-272.). […] Overall the level of background peptides was decreased by over 90%, when chemical elution was used for the sample preparation (as shown in the above Table). Although the number of carboxylesterase peptides identified was reduced compared to the on-bead sample we could still make a confident identification with nearly 40% coverage of peptide sequence.

[7] = chemically eluted, digested in solution

C[C@H](NC(=O)c1ccc(N=Nc2cc(CCNC(=O)CCCC[C@@H]3SC[C@@H]4NC(=O)N[C@@H]43)ccc2O)cc1)C(=O)N[C@@H](C)C(=O)NC(Cc1ccccc1)P(=O)(Oc1ccccc1)Oc1ccccc1 (some centres unmarked) [MTS-I-49]
Chemical Cleavage, number of identified peptides [1, 7]: 0 | On Bead Digestion, amino acid sequence coverage ([1]; on bead digestion): 19% | On Bead Digestion, number of identified peptides ([1]; on bead digestion): 4 | Chemical Cleavage, number of identified peptides [2, 7]: 0 | On Bead Digestion, amino acid sequence coverage ([2]; on bead digestion): 10% | On Bead Digestion, number of identified peptides ([2]; on bead digestion): 2 | Chemical Cleavage, number of identified peptides (albumin 1; [7]): 0 | On Bead Digestion, amino acid sequence coverage (albumin 1; on bead digestion): 6% | On Bead Digestion, number of identified peptides (albumin 1; on bead digestion): 2 | Chemical Cleavage, number of identified peptides (carbonmonoxy hemoglobin; [7]): 0 | On Bead Digestion, amino acid sequence coverage (carbonmonoxy hemoglobin; on bead digestion): 68% | On Bead Digestion, number of identified peptides (carbonmonoxy hemoglobin; on bead digestion): 7 | Chemical Cleavage, amino acid sequence coverage [3, 7]: 8% | Chemical Cleavage, number of identified peptides [3, 7]: 3 | On Bead Digestion, amino acid sequence coverage ([3]; on bead digestion): 45% | On Bead Digestion, number of identified peptides ([3]; on bead digestion): 22 | Chemical Cleavage, number of identified peptides [4, 7]: 0 | On Bead Digestion, amino acid sequence coverage ([4]; on bead digestion): 6% | On Bead Digestion, number of identified peptides ([4]; on bead digestion): 2 | Chemical Cleavage, number of identified peptides [5, 7]: 0 | On Bead Digestion, amino acid sequence coverage ([5]; on bead digestion): 34% | On Bead Digestion, number of identified peptides ([5]; on bead digestion): 3 | decrease of the level of background peptides [6]: over 90%
